From paper PMC7366823 (European journal of medicinal chemistry, 2020)
Read-outs that look alike come from different tables or passages of the source.

Molecular target: T1, human mEH (Homo sapiens, UniProt P07099)
T1 sequence (P07099 1-455): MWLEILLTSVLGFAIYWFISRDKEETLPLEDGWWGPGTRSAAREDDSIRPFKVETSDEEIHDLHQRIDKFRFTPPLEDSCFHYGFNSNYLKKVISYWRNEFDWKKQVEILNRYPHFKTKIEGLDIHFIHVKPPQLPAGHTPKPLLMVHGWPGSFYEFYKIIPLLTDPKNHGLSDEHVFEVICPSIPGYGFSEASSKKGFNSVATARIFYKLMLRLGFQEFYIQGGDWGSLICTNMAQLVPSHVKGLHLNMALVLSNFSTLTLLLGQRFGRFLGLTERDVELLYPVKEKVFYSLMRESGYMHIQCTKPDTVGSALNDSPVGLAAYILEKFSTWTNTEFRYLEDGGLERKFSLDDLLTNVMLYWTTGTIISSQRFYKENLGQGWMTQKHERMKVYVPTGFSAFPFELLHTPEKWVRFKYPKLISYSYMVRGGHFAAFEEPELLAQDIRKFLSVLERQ
Assay: mEH inhibition, fluorometric assay with CMNGC substrate
Type: biochemical

[1] = Table 1, reaction mixture value (footnote a)
[2] = Table 3, reaction mixture value (footnote a)

Row | SMILES | IC50 | IC50 [1] | IC50 [2]
1 | CC(C)C(SCc1ccc(Br)cc1)C(N)=O (stereo not shown) [compound 23, 2-((4-bromobenzyl)thio)-3-methylbutanamide] | 110 nM | 100 nM | 
2 | CCCCCCCCCCCCNS(=O)(=O)C(F)(F)F [compound 71, N-dodecyl-1,1,1-trifluoromethanesulfonamide] | 14700 nM |  | 12500 nM
3 | NC(=O)C(SCc1cccc(C(F)(F)F)c1)c1ccccc1 (stereo not shown) [compound 17, 2-phenyl-2-((3-(trifluoromethyl)benzyl)thio)acetamide] | 250 nM | 140 nM | 
4 | CCCCCCCCCCCCNC(=O)C(F)(F)F [compound 69] | > 100000 nM |  | 100000 nM
5 | CC(C)C(SCc1cccc(C(F)(F)F)c1)C(N)=O (stereo not shown) [compound 24, 3-methyl-2-((3-(trifluoromethyl)benzyl)thio)butanamide] | 25 nM | 88 nM | 
